Calls of active or inactive are those of the source.
Assays:
[1] = target: T1, Bcl-2-like protein 10 (Homo sapiens, UniProt Q9HD36); experiment: Bcl-B/TR3 peptide binding disruption – biochemical, fluorescence polarization, FITC-TR3 peptide, selectivity assay for Bfl-1 inhibitor project, primary screen (AID 748);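 further: fluorescence polarization from a fluorescein-labelled TR3 peptide binding purified Bcl-B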
T1 sequence (Q9HD36 whole entry): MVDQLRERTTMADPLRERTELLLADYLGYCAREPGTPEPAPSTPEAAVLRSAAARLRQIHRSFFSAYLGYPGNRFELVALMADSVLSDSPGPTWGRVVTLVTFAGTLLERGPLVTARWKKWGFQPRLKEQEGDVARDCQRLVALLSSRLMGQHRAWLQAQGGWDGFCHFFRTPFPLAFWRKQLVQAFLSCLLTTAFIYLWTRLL

[2] = target: Luciferin 4-monooxygenase (Photinus pyralis, UniProt P08659); experiment: Counter Screen for Luciferase-based Assay Positives. [Related pubchem assays: 620, 618, 411 ]
Sequence of Luciferin 4-monooxygenase (P08659 whole entry): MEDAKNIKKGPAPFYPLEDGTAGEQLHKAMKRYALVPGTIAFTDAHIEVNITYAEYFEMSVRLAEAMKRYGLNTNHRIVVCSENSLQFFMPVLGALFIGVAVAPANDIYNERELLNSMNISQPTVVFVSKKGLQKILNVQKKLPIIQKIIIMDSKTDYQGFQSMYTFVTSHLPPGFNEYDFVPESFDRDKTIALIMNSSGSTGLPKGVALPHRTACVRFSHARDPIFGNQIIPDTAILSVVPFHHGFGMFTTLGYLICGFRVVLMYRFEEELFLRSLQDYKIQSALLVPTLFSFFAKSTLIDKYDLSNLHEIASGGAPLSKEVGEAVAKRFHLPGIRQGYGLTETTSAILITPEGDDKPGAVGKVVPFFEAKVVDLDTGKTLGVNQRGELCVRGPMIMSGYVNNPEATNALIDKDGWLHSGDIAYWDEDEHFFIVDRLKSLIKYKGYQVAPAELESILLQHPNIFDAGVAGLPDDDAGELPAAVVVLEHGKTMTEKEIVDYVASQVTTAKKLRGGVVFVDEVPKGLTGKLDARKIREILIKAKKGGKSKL

[3] = target: T2, Estrogen receptor (Homo sapiens, UniProt P03372);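 further: potency for inhibiting coactivator peptide recruitment to the receptor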
T2 sequence (P03372 whole entry): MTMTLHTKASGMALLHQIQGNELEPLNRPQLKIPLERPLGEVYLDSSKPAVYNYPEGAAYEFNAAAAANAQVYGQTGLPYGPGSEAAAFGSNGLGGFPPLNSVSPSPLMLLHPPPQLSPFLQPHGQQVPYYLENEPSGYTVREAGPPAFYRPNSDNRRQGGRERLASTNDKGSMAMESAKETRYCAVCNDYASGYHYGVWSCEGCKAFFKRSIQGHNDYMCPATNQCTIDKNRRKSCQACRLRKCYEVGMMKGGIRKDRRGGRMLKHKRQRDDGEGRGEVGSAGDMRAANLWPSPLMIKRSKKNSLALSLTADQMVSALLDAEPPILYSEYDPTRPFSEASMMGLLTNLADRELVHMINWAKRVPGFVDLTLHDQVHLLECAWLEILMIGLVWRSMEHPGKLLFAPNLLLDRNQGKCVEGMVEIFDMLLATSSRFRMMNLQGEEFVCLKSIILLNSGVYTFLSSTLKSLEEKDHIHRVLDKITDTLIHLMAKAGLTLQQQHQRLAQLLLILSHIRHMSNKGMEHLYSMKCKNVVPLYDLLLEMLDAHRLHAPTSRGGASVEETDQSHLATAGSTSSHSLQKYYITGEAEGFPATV

[4] = target: T3, Estrogen receptor beta (Homo sapiens, UniProt Q92731);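 further: recombinant ER-beta bound to coactivator SRC1 peptide in presence of estradiol agonist; inhibitors block coactivator peptide binding and lower the FRET signal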
T3 sequence (Q92731 whole entry): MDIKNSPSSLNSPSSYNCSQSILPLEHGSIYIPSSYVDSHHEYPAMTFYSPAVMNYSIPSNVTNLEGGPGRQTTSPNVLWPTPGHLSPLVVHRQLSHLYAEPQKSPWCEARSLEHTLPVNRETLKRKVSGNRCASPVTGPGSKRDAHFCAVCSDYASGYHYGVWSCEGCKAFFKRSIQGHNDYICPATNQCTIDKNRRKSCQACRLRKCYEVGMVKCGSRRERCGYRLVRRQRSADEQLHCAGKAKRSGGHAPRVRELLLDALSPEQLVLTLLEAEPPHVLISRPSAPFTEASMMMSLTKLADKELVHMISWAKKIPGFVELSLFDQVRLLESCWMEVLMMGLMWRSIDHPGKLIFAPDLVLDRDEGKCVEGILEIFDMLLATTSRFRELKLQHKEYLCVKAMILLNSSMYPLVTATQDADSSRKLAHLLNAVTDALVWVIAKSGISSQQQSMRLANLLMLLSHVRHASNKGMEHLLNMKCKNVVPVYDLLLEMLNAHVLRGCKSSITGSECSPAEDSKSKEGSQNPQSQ

[5] = target: T3, Estrogen receptor beta; experiment: blockers of SRC-3 recruitment to ERβ – biochemical, ELISA, streptavidin-HRP readout, orthogonal assay, confirmation (AID 1060)
[6] = system: HT-1080; experiment: HT1080 cell viability loss – fluorescence readout (AID 620); type: functional, cell-based; conditions: Homo sapiens
[7] = viability of uninfected HEp-2 cells – cell-based, HTS, cytotoxicity control for RSV inhibitor project, dose response (AID 2410); type: functional; conditions: human respiratory syncytial virus
[8] = cells
[9] = system: Streptococcus sp. 'group A'; experiment: Streptococcus pyogenes SK(-)GAS viability under kanamycin – luminescence, BacTiterGlo, confirmation, counter-screen for streptokinase expression inhibitor project, dose response (AID 1900); type: functional, organism-based
[10] = microbe, parasite or virus in culture; type: functional; conditions: Mycobacterium tuberculosis
[11] = system: Streptococcus; experiment: GAS UMAA2166 growth inhibition – luminescence, BacTiterGlo, counter-screen for streptokinase expression inhibitor project, dose response (AID 1915); type: functional, organism-based;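 further: potency for reduction of bacterial viability or growth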
[12] = target: Neurotensin receptor type 1 (Homo sapiens, UniProt P30989); type: functional;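 further: Image-based confirmatory dose-response assay measuring agonist activity at NTR1; NTR1-expressing U2OS osteosarcoma cells imaged for beta-arrestin GFP spot formation; agonist potency where compounds increase beta-arrestin recruitment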
Sequence of Neurotensin receptor type 1 (P30989 whole entry): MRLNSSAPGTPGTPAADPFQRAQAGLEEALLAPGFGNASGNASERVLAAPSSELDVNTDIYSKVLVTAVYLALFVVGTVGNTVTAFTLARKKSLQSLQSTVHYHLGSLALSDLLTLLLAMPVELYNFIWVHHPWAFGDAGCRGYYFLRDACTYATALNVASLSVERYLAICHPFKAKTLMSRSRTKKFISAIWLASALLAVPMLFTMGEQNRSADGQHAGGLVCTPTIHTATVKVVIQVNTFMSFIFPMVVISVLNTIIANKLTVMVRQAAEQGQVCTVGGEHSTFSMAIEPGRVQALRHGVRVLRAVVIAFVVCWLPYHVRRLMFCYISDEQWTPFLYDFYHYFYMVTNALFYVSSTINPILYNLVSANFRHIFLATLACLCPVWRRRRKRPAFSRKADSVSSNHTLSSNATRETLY

[13] = target: NS3 (Hepatitis C virus, UniProt A3EZJ3); experiment: PubChem AID 2173; set-up: species or system Hepacivirus hominis
Sequence of NS3 (A3EZJ3 whole entry): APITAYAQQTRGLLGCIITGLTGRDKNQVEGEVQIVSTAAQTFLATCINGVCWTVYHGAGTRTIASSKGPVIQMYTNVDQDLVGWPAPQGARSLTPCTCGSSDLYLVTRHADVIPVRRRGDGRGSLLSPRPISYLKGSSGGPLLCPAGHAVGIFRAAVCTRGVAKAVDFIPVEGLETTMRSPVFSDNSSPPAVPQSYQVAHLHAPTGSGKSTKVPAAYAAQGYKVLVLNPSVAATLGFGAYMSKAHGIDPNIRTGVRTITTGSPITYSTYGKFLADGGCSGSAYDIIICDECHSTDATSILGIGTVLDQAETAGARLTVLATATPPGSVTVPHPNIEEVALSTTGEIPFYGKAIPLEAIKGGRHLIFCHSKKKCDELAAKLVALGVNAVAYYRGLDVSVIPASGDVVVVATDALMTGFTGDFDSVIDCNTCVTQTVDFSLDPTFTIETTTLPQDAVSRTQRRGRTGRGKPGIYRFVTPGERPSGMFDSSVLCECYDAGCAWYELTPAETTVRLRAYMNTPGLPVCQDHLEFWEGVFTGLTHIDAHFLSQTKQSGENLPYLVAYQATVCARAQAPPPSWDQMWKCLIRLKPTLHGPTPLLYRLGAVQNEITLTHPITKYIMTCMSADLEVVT

[14] = Trypanosoma cruzi growth suppression in host cells – NIH3T3 host cells, beta-gal luminescence, confirmation (AID 2044); type: functional, cell-based;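 further: intracellular parasites grown in NIH/3T3 mouse fibroblasts as host cells; luminescent beta-galactosidase reporter signal from transgenic T. cruzi replicating inside host cells; inhibitors lower the luminescence signal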
[15] = viability of PTEN-deleted HCT116 cells – cell-based, HCT116 PTEN knockout, dose response (AID 1047); type: functional;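 further: HCT116 colon tumor cells with PTEN knocked out; cells exposed to compound for 60 hours before readout; potency for loss of cell viability measured by luminescence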
[16] = NIH3T3 cell viability loss – ATP luminescence, mouse fibroblasts, counter-screen, dose response (AID 2010); type: functional, cell-based;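 further: cells exposed to compound for about 90 hours before reading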
[17] = viability of HCT116 lacking mutant beta-catenin – cell-based, human colon tumor, dose response (AID 1045); type: functional;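 further: HCT116 colon tumor cells with beta catenin knocked out; cells exposed to compound for 60 hours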
[18] = Luminescence Cell-Based Dose Retest to Confirm Inhibitors of Cancer Stem Cells. [Related pubchem assays (depositor defined):AID2717, AID2721]; type: functional; conditions: Homo sapiens
[19] = decrease of insulin promoter-GFP reporter – imaging, high-content screening, mouse beta cells (AID 1628); type: functional; conditions: MIN6
[20] = MIN6 cell viability loss – mouse insulinoma, cytotoxicity control, dose response (AID 2122); type: functional;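 further: confirmatory high-throughput counterscreen run to flag cytotoxic compounds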
[21] = target: T4, Bcl-2-related protein A1 (Mus musculus, UniProt Q07440); type: functional;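 further: confirmatory dose–response counterscreen on Bfl-1, used to check hits from a UBC13 polyubiquitin inhibitor campaign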
T4 sequence (Q07440 whole entry): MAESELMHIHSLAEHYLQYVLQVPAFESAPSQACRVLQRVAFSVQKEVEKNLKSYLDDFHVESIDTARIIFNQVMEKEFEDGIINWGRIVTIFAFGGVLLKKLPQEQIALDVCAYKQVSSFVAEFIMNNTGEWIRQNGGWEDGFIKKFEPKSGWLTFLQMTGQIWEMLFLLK

[22] = target: T5, Ubiquitin-conjugating enzyme E2 N (Homo sapiens, UniProt P61088); type: functional
T5 sequence (P61088 whole entry): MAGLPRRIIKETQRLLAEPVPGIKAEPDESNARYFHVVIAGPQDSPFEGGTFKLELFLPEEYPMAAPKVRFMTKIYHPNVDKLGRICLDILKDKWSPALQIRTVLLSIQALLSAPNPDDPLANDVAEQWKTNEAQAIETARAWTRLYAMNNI

[23] = target: T5, Ubiquitin-conjugating enzyme E2 N; type: functional; remark: listed apart in the source
[24] = target: T6, Heat shock factor protein 1 (Mus musculus, UniProt P38532); experiment: enhancement of HSF1-driven luciferase signal – cell-based, NIH3T3, luminescence, dose retest, confirmation (AID 435004); type: functional;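 further: stress induced by proteasome inhibitor MG132 added 30 min after compound; luciferase reporter driven by HSF1 response element in NIH3T3 cells; actives raise luminescence as potentiators of the MG132 stress response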
T6 sequence (P38532 whole entry): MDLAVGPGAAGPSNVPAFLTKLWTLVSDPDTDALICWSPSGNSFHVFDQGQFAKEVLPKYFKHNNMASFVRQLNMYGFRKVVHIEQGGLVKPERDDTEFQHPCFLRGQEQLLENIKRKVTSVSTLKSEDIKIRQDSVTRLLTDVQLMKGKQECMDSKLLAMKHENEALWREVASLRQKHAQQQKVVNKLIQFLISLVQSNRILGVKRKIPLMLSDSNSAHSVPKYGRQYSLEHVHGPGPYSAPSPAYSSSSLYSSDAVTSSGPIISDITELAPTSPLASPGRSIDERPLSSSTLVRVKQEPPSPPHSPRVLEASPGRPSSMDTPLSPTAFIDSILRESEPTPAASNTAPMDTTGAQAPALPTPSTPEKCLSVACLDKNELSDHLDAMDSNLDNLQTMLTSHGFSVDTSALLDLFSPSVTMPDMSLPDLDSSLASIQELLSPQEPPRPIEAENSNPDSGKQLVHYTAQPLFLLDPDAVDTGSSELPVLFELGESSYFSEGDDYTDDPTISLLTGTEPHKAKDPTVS

[25] = target: T7, Apoptotic protease-activating factor 1 (Homo sapiens, UniProt O14727); type: functional
T7 sequence (O14727 whole entry): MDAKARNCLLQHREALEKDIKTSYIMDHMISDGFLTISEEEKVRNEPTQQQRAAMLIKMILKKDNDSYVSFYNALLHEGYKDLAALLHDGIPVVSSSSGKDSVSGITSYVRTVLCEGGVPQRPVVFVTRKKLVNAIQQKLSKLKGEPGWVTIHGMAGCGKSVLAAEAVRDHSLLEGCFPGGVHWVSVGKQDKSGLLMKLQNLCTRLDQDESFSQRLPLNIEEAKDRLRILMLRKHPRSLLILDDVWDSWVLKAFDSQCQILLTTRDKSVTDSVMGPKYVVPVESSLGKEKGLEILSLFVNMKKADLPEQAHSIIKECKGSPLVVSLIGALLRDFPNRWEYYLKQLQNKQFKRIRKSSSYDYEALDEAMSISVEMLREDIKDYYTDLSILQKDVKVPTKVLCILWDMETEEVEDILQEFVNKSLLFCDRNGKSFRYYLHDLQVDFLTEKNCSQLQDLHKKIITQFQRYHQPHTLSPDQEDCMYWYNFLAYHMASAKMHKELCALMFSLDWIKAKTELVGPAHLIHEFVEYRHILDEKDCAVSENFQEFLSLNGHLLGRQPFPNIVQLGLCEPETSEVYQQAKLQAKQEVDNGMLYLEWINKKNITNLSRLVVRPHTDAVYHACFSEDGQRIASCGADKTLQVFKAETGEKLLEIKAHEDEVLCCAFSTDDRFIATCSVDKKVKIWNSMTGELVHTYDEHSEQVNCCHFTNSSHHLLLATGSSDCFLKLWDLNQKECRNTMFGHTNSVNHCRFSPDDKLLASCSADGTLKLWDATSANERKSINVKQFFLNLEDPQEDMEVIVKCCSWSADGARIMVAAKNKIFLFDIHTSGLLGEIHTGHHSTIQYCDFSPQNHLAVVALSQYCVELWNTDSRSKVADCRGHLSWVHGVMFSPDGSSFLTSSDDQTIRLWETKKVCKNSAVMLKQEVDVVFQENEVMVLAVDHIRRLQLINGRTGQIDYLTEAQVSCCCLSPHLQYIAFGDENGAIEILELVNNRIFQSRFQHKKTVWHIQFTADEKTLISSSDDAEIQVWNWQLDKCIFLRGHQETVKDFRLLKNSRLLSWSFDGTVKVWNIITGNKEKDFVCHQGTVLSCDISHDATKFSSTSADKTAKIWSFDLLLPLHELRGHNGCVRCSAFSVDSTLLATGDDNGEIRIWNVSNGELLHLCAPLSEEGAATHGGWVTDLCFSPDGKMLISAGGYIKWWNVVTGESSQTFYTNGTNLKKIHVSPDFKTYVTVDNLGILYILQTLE

[26] = A cytotoxicity screen of small molecule inhibitors of the PhoP region in Salmonella typhi identified in the primary screen. [Related pubchem assays: 1850, 1864, 1985 ]; type: functional
[27] = target: T8, Mannose-6-phosphate isomerase (Homo sapiens, UniProt P34949); experiment: MPI enzyme activity inhibition – biochemical, fluorescence intensity, coupled assay, primary screen (AID 1209)
T8 sequence (P34949 whole entry): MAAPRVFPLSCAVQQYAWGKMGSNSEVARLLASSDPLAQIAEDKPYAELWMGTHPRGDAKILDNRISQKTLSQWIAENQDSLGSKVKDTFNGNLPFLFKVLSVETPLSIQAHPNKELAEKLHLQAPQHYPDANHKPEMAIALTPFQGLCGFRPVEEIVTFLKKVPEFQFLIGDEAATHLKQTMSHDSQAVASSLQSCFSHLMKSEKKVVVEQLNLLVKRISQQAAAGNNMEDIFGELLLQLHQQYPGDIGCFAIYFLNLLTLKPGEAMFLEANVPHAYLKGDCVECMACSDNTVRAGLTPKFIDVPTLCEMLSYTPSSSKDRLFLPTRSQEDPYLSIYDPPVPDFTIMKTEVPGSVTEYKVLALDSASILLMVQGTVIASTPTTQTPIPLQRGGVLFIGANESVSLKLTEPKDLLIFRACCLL

[28] = target: T9, Carboxy-terminal domain RNA polymerase II polypeptide A small phosphatase 1 (Homo sapiens, UniProt Q9GZU7); experiment: CTDSP1 inhibitors, concentration-response, biochemical, absorbance readout, ultra-high-throughput screen actives (AID 540297); type: functional
T9 sequence (Q9GZU7 whole entry): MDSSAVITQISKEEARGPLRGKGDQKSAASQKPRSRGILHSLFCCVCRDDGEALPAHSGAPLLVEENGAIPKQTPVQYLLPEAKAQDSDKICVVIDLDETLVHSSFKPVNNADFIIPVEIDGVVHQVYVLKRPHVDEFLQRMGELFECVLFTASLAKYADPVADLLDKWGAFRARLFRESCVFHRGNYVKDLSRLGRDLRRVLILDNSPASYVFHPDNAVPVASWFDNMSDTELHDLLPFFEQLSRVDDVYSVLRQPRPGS
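Wherever AC50 is given: cells exposed to compound for roughly 70 hours or longer before luminescence read.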

Compound: CCc1ccc(NC(=O)c2noc3c2CCC3)cc1
- IC50 [1]: 21.7 µM (active)
- EC50 [2]: 1.4 µM (active)
- IC50 [3]: 7.94 µM (active)
- IC50 [4]: 5.5 µM (active)
- IC50 [5]: < 0.023 µM (not active)
- EC50 [6]: > 50 µM (not active)

Compound: O=[N+]([O-])c1ccccc1S(=O)(=O)Nc1cccc(-c2ccc(N3CCOCC3)nn2)c1
- CC50 [7]: > 50 µM (active)
- IC50 [8]: 16.8 µM (active)

Compound: C/C(=N/Nc1cc(-c2ccccc2)nc(-c2ccccc2)n1)c1ccc(O)cc1
- EC50 [9]: 1.52 µM (active)
- CC50 [10]: 18.2 µM (active)
- EC50 [11]: 1.56 µM (active)
- EC50 [12]: 15.9 µM (active)

Compound: O=C1c2ccccc2C(=O)N1CCCCN(C(=O)c1cc2ccccc2oc1=O)c1ccc(Cl)cc1
- IC50 [8]: 21.9 µM (active)

Compound: CC(C)C(C)(C#N)NC(=O)CSc1nc2scc(-c3ccco3)c2c(=O)n1-c1ccccc1 (stereo unspecified)
- IC50 [13]: 11.3 µM (not active)

Compound: CCCCCn1c(N2CCC(Cc3ccccc3)CC2)nc2c1c(=O)[nH]c(=O)n2C
- EC50 [14]: 0.971 µM (active)
- EC50 [15]: 11.9 µM (active)
- EC50 [16]: > 60 µM (not active)
- EC50 [17]: 12.7 µM (active)
- EC50 [12]: 9.08 µM (active)

Compound: C=CCn1c(SCC(=O)OC)nc2sc3c(c2c1=O)CCN(C)C3
- IC50 [1]: 71 µM (inactive)

Compound: COC(=O)c1sc2nc(N3CCCCC3)c3c(c2c1N)CCCC3
- CC50 [7]: > 50 µM (active)
- AC50 [18]: 2.95 µM (active)
- IC50 [8]: > 50 µM (active)

Compound: CCCCCCOc1ccc(/C(C)=N/NC2=NCCN2)cc1[N+](=O)[O-]
- IC50 [19]: 2.34 µM (active)
- IC50 [20]: 2.11 µM (active)
- EC50 [14]: 2.15 µM (active)
- EC50 [16]: > 30 µM (not active)
- AC50 [18]: 4.9 µM (active)
- IC50 [21]: > 20 µM (inactive)
- IC50 [22]: 12.6 µM (active)
- EC50 [12]: 18.9 µM (active)
- IC50 [23]: 12.1 µM (active)
- EC50 [24]: > 260 µM (inactive)
- IC50 [25]: 70.5 µM (active)

Compound: CCN=C(S)Nc1cc(-c2ccc(Cl)cc2)[nH]n1
- EC50 [26]: > 50 µM (active)
- IC50 [27]: > 50 µM (not active)

Compound: CC[n+]1c(C)n(-c2ccccc2)c2ccc(NC(C)=O)cc21
- IC50 [27]: > 50 µM (not active)
- IC50 [28]: 5.18 µM (active)

Compound: Cc1ccc(CCCOC(=O)C[N+]2(C)CCCC2)cc1
- IC50 [27]: > 50 µM (not active)
- IC50 [28]: 11 µM (active)

Compound: COc1cc(C(=O)OCC(=O)Nc2c(F)c(F)c(F)c(F)c2F)cc(OC)c1OC
- IC50 [3]: > 50 µM (not active)
